Here are results for 10 compounds from US8530652B2, “Pyrrolopyrazoles, potent kinase inhibitors” (Agouron Pharmaceuticals, Inc., priority 2005, dated 2013).

The target in assay [1] is PAK4 kinase domain (PAK4 KD) (Homo sapiens (Human), UniProt O96013). Kind of assay: PAK4 kinase domain enzymatic assay (coupled PK/LDH, NADH absorbance at 340 nm). The class given is biochemical. The settings on record: PAK4 kinase domain, 25 nM PAK4 KD, 0.04 mM ATP, pH 7.5. An excerpt: Cloning, expression, and purification of recombinant PAK4 Kinase domain (PAK4 KD): The cDNA coding for PAK4 was amplified from the EST clone (#12) (purchased from Research Genetics) by using PCR. […] The PCR amplified product was cloned into Topo vector (Invitrogen Inc.), and verified by DNA sequencing. PAK4 KD was then subcloned into expression plasmid pET28a(+), pET24a(+), or pGST4.5. The recombinant plasmids containing PAK4 KD was transformed into BL21(DE3) cells for recombinant protein expression. […] The cells were then harvested and lyzed for protein purification. Ni-NTA column (pET28a(+), pET24a(+)) and glutathione column (pGST4.5) were used for the purification.
PAK4 kinase domain enzymatic assay conditions: the enzymatic activity of PAK4 KD was measured by its ability to catalyze the transfer of a phosphate residue from a nucleoside triphosphate to an amino acid side chain of a commercially available peptide (amino acid sequence […]). The conversion of ATP to ADP accompanies the catalytic reaction. The PAK4 KD catalyzed production of ADP from ATP was coupled to the oxidation of NADH through the activities of pyruvate kinase (PK) and lactate dehydrogenase (LDH). The conversion of NADH to NAD^+ is monitored by the decrease in absorbance at 340 nm (e340=6.22 cm^−1mM^−1) using a Molecular Devices SPECTRAMAX 190 in conjunction with the Biomec FX. Typical reaction solutions contain 2 mM phosphoenolpyruvate, 0.35 mM NADH, 10 mM MgCl2, 1 mM DTT, 0.4 mM peptide ([…]) 0.04 mM ATP, 1 units/mL PK, 1 units/mL LDH, 0.01% Tween 20 in 50 mM HEPES, pH 7.5. […] The PAK KD Ki of each compound of the invention (the inhibitor) was calculated based on multiple of Percent Inhibition numbers of the inhibitor at different inhibitor concentrations. The peptide (amino sequence […]) was purchased from American Peptide Company. NADH, MgCl2, HEPES, DTT, ATP and PK/LDH were purchased from Sigma. Tween 20 was purchased from Calbiochem.

Assay [2] concerns the target PAK4 kinase activity in whole cells (TR-293-KDG, modified HEK 293 overexpressing GEF-H1b and PAK4 KD) (Homo sapiens (Human), UniProt O96013). Briefly: PAK4 cellular assay: sandwich ELISA of PAK4-dependent phosphorylation of GEF-H1b in TR-293-KDG cells. The class given is cell-based. The settings on record: doxycycline-induced, 3-hour exposure, phospho-GEF-H1b ELISA. An excerpt: A sandwich ELISA method was used to measure the PAK4 kinase activity in whole cells. The level of PAK4-dependent phosphorylation of GEF-H1b can be determined by monitoring the binding of a phosphospecific antibody to GEF-H1b. A modified HEK 293 cell line is used in the bioassay and it has been engineered to overexpress both GEF-H1b and the kinase domain (KD) of PAK4. The KD of PAK4 is inducible in this cell line by tetracycline (Trex system, Invitrogen). The name of this cell line has been designated TR-293-KDG. To establish a phosphorylation event on GEF-H1, cells are induced with doxycycline to express the PAK4 KD. […] Candidate substance effect is measured as the ability to block this phosphorylation event.
ELISA plate was prepared by pre-coating the plates with a capture antibody (α-HA-tag mouse monoclonal antibody), blocked with BSA, and washed in 0.1% tween 20 in tris-buffered saline (TBST). Tissue culture plates (precoated with poly-D-lysine) were seeded with TR-293-KDG cells. The TR-293-KDG Cells were induced to express the PAK4 KD with doxycycline overnight and subsequently & concomitantly treated with candidate substances or diluent for an additional 3-hour, continuous exposure. Cells were then lysed with a modified RIPA buffer supplemented with protease inhibitors. The fresh whole cell lysates were then added to the ELISA plate for 2-hours. Between all subsequent steps plates were washed 4 times with TBST. Detection antibody (recognizing the phospho-specific eptitope on GEF-H1b) was added for 1 hour, followed by addition of an enzyme linked goat α-rabbit secondary antibody for 45 minutes. […] EC50 values were calculated by sigmoid curve fitting using a four-parameter analysis.
For orientation: In an ELISA, binding on a coated surface is turned into a signal by an enzyme label.

PAK4 kinase domain (PAK4 KD), sequence (O96013 321-572): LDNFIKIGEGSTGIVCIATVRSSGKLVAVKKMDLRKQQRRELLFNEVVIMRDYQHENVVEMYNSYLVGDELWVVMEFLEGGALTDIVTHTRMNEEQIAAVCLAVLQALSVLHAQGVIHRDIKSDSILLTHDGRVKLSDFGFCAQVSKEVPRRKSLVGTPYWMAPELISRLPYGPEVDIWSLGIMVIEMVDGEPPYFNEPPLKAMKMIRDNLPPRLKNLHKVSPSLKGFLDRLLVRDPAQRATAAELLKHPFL
PAK4 kinase activity in whole cells (TR-293-KDG, modified HEK 293 overexpressing GEF-H1b and PAK4 KD), sequence (O96013 321-572): as above

By Ki is commonly meant the dissociation constant of the complex between target and ligand, obtained from inhibition or displacement. Higher therefore signals lower affinity. As a reminder, the EC50 is the concentration giving half of the maximal effect. For the compound `COc1ncc(F)c(Nc2n[nH]c3c2CN(C(=O)N[C@@H]2C[C@H]2c2ccccc2)C3(C)C)n1` (relative stereo) [Example 43, 3-[(5-fluoro-2-methoxypyrimidin-4-yl)amino]-6,6-dimethyl-N-[trans-2-phenylcyclopropyl]-4,6-dihydropyrrolo[3,4-c]pyrazole-5(1H)-carboxamide], the Ki in assay [1] was 450 nM. For the same compound, the EC50 in assay [2] was > 4000 nM.

Consider `CCCOc1nc(Cl)nc(Nc2n[nH]c3c2CN(C(=O)N[C@@H]2C[C@H]2c2ccccc2)C3(C)C)n1` (relative stereo) [Example 7, 3-[(4-chloro-6-propoxy-1,3,5-triazin-2-yl)amino]-6,6-dimethyl-N-[trans-2-phenylcyclopropyl]-4,6-dihydropyrrolo[3,4-c]pyrazole-5(1H)-carboxamide], for which the Ki in assay [1] is 87 nM. Moreover, the EC50 in assay [2] is > 4000 nM. In the same order, the values of `CC1(C)c2[nH]nc(Nc3nc(C(F)(F)F)nc4ccsc34)c2CN1C(=O)N[C@@H]1C[C@H]1c1ccccc1` (relative stereo) [Example 45, 6,6-dimethyl-N-[trans-2-phenylcyclopropyl]-3-{[2-(trifluoromethyl)thieno[3,2-d]pyrimidin-4-yl]amino}-4,6-dihydropyrrolo[3,4-c]pyrazole-5(1H)-carboxamide] are 25 nM and 32 nM.

The compound `CC1(C)c2[nH]nc(Nc3ncnc4sccc34)c2CN1C(=O)N[C@@H]1C[C@H]1c1ccccc1` (relative stereo) [Example 42, 6,6-dimethyl-N-[trans-2-phenylcyclopropyl]-3-(thieno[2,3-d]pyrimidin-4-ylamino)-4,6-dihydropyrrolo[3,4-c]pyrazole-5(1H)-carboxamide] displayed a Ki in assay [1] of 94 nM. Further, in assay [2], a half-maximal response (EC50) required 610 nM.

As to `CN(C)C[C@@H](OC(=O)N1Cc2c(Nc3ccnc(C#N)n3)n[nH]c2C1(C)C)c1ccccc1` [Example 70, (1S)-2-(dimethylamino)-1-phenylethyl 3-[(2-cyanopyrimidin-4-yl)amino]-6,6-dimethyl-4,6-dihydropyrrolo [3,4-c]pyrazole-5(1H)-carboxylate], the affinity in assay [1] corresponds to a Ki of 8.8 nM. Also, in assay [2], the EC50 worked out at 1.9 nM. In the same order, the values of `CN(C)C[C@@H](NC(=O)N1Cc2c(Nc3ncnc4ccoc34)n[nH]c2C1(C)C)c1ccccc1` [Example 83, N-[(1S)-2-(dimethylamino)-1-phenylethyl]-3-(furo[3,2-d]pyrimidin-4-ylamino)-6,6-dimethyl-4,6-dihydropyrrolo[3,4-c]pyrazole-5(1H)-carboxamide] are 58 nM and 84 nM. On to `CC1(C)c2[nH]nc(Nc3nc(Cl)nc(Cl)n3)c2CN1C(=O)N[C@@H]1C[C@H]1c1ccccc1` (relative stereo) [Example 9, 3-[(4,6-dichloro-1,3,5-triazin-2-yl)amino]-6,6-dimethyl-N-[trans-2-phenylcyclopropyl]-4,6-dihydropyrrolo[3,4-c] pyrazole-5(1H)-carboxamide], for which, in assay [1], the Ki is 270 nM. The EC50 in assay [2] is > 4000 nM. In the case of `CN(C)C[C@@H](NC(=O)N1Cc2c(Nc3ccnc(C(F)(F)F)n3)n[nH]c2C1(C)C)c1ccccc1` [Example 55, N-[(1S)-2-(dimethylamino)-1-phenylethyl]-6,6-dimethyl-3-{[2-(trifluoromethyl)pyrimidin-4-yl]amino}-4,6-dihydropyrrolo[3,4-c]pyrazole-5(1H)-carboxamide], in assay [2], the EC50 is > 4000 nM. As to `Cn1cnc2c(Nc3n[nH]c4c3CN(C(=O)N[C@@H]3C[C@H]3c3ccccc3)C4(C)C)ncnc21` (relative stereo) [Example 36, 6,6-dimethyl-3-[(9-methyl-9H-purin-6-yl)amino]-N-[trans-2-phenylcyclopropyl]-4,6-dihydropyrrolo[3,4-c]pyrazole-5(1H)-carboxamide], the EC50 in assay [2] is > 4000 nM. The same measure, in the same setting: then `Cc1nccc(Nc2n[nH]c3c2CN(C(=O)N[C@@H]2C[C@H]2c2ccccc2)C3(C)C)n1` (relative stereo) [Example 39, 6,6-dimethyl-3-[(2-methylpyrimidin-4-yl)amino]-N-[trans-2-phenylcyclopropyl]-4,6-dihydropyrrolo[3,4-c]pyrazole-5(1H)-carboxamide], with > 4000 nM.
